Reference: PubChem BioAssay AID720642 (The Scripps Research Institute Molecular Screening Center, 2013)
The source made the active and inactive calls.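 The calls were made as follows: active = EC50 activation potency at or below 10 µM in this mu opioid counterscreen; inactive = EC50 above 10 µM or never reaching half activation.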

molecular target: Mu-type opioid receptor (Homo sapiens) (UniProt P35372); experiment: OPRM1 agonists via beta-arrestin recruitment, late-stage follow-up, counter-screen for mouse HTR2A agonist project, cell-based, luminescence, dose response, powder samples (AID 720642); conditions: U2OS OPRM1 beta-arrestin complementation
Sequence (P35372 whole entry, looked up): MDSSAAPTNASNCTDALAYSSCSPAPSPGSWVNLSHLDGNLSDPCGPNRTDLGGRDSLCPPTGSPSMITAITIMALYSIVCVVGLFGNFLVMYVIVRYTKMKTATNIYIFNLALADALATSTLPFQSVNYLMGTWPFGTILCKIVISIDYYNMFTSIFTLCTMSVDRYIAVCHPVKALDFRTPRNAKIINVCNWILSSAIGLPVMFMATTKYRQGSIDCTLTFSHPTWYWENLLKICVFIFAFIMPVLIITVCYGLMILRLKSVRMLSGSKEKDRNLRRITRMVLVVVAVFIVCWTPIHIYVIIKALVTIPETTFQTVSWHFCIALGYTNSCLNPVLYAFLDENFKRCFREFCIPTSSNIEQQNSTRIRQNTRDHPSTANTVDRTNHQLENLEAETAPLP

Row | Structure (SMILES) | EC50
1 | c1ccc(CN2CCN(c3ncccn3)CC2)cc1 | > 92.5 µM (inactive)
2 | NC1CCc2cc(O)c(O)cc2C1 (centres undefined) | > 92.5 µM (inactive)
3 | CCCN1CCC[C@H](c2cccc(O)c2)C1 | > 92.5 µM (inactive)
4 | COc1ccc(CN2CCN(c3ncccn3)CC2)c(OC)c1 | > 92.5 µM (inactive)
5 | c1ccc(N2CCN(Cc3ccsc3)CC2)nc1 | > 92.5 µM (inactive)
6 | CCOC(=O)C1CCN(Cc2cccc(Oc3ccc(Cl)cc3)c2)CC1 | > 92.5 µM (inactive)
7 | Clc1ccc(CN2CCN(c3ncccn3)CC2)cc1Cl | > 92.5 µM (inactive)
8 | COc1cc(Br)cc(CN2CCN(c3ncccn3)CC2)c1O | > 92.5 µM (inactive)
9 | COc1ccccc1C(=O)NCCN1CCN(c2ccccc2)CC1 | > 92.5 µM (inactive)
10 | CCOC(=O)N1CCN(Cc2ccc(OCC(O)CN3CCCCC3)cc2)CC1 (centres undefined) | > 92.5 µM (inactive)
11 | CC(CCc1ccc(O)cc1)NCCc1ccc(O)c(O)c1 (centres undefined) | > 92.5 µM (inactive)
12 | Clc1ccccc1CN1CCN(c2ccccc2)CC1 | > 92.5 µM (inactive)
13 | CCOc1ccc(NC(=O)CCN2CCN(c3ccccc3F)CC2)cc1 | > 92.5 µM (inactive)
14 | OC(COc1ccc2cc(Br)ccc2c1)CN1CCN(c2ccccn2)CC1 (centres undefined) | > 92.5 µM (inactive)
15 | Brc1cccc(CN2CCN(c3ncccn3)CC2)c1 | > 92.5 µM (inactive)
16 | Cc1ccc(CN2CCN(c3ncccn3)CC2)o1 | > 92.5 µM (inactive)
17 | CC(COc1ccccc1)N1CCC(CO)(Cc2ccccc2)CC1 (centres undefined) | > 92.5 µM (inactive)
18 | CC(=O)N1CCc2cc(C(=O)CN3CCN(c4cccc(Cl)c4)CC3)ccc21 | > 92.5 µM (inactive)
19 | Clc1ccccc1CN1CCN(c2ncccn2)CC1 | > 92.5 µM (inactive)
20 | COc1ccc(CN2CCN(c3ncccn3)CC2)c(C)c1C | > 92.5 µM (inactive)
21 | CCn1c(=O)cc(SCC(=O)NCCCN2CCN(c3ccccc3F)CC2)c2ccccc21 | > 92.5 µM (inactive)
22 | Cc1ccc(CN2CCN(c3ccccn3)CC2)s1 | > 92.5 µM (inactive)
23 | Fc1cccc(CN2CCN(c3ncccn3)CC2)c1 | > 92.5 µM (inactive)
24 | CC(=O)N1CCC(N2CCN(c3ccccc3F)CC2)CC1 | > 92.5 µM (inactive)
25 | O=C(c1ccco1)N1CCN(Cc2ccc(Cl)cc2)CC1 | > 92.5 µM (inactive)
26 | Cc1ccc(CN2CCN(c3ncccn3)CC2)c(C)c1 | > 92.5 µM (inactive)
27 | COc1ccc(CN2CCN(C(=O)c3ccco3)CC2)cc1OCc1ccccc1 | > 92.5 µM (inactive)

Row | Structure (SMILES) | EC50
28 | CC1CC(C)CN(CCOc2cccc(Cl)c2Cl)C1 (centres undefined) | > 92.5 µM (inactive)
29 | CCc1ccc(CN2CCN(C(=O)c3ccco3)CC2)cc1 | > 92.5 µM (inactive)
30 | Brc1ccc(CN2CCN(c3ccccn3)CC2)s1 | > 92.5 µM (inactive)
31 | CC1(C)C(C=C(Cl)Cl)C1C(=O)N1CCN(Cc2ccccc2)CC1 (centres undefined) | > 92.5 µM (inactive)
32 | Cn1cc(C(F)(F)F)nc1-c1ccc(OCC(O)CNCCOc2ccc(O)c(C(N)=O)c2)cc1 (centres undefined) | > 92.5 µM (inactive)
33 | CN(c1ccc(C(=O)N2CCN(Cc3ccccc3)CC2)cc1)S(=O)(=O)c1ccc(Cl)cc1 | > 92.5 µM (inactive)
34 | COc1cc(CN2CCN(c3ncccn3)CC2)cc(OC)c1 | > 92.5 µM (inactive)
35 | c1ccc(COc2ccc(CN3CCN(c4ccccn4)CC3)cc2)cc1 | > 92.5 µM (inactive)
36 | COc1ccc(CN2CCN(c3ccccn3)CC2)c(OC)c1 | > 92.5 µM (inactive)
37 | COc1ccc(CC2(CO)CCN(Cc3cc4ccccc4o3)CC2)cc1 | > 92.5 µM (inactive)
38 | Cc1ccsc1CN1CCN(c2ccccn2)CC1 | > 92.5 µM (inactive)
39 | C=CCN1CCc2nc(N)sc2CC1 | > 92.5 µM (inactive)
40 | Cc1cccc(CN2CCN(c3ncccn3)CC2)c1 | > 92.5 µM (inactive)
41 | CCCN(CCC)C1CCc2cccc(O)c2C1 (centres undefined) | > 92.5 µM (inactive)
42 | CCCN1C[C@H](CSC)C[C@@H]2c3cccc4[nH]cc(c34)C[C@H]21 | > 92.5 µM (inactive)
43 | OCC1(Cc2cccc(C(F)(F)F)c2)CCN(Cc2cc3ccccc3o2)CC1 | > 92.5 µM (inactive)
44 | Fc1ccc(F)c(CN2CCN(c3ncccn3)CC2)c1 | > 92.5 µM (inactive)
45 | NC[C@@H]1O[C@H](C23CC4CC(CC(C4)C2)C3)Cc2c1ccc(O)c2O | > 92.5 µM (inactive)
46 | O=C(CN1CCN(c2ccccn2)CC1)Nc1ccc(Oc2ccccc2)cc1 | > 92.5 µM (inactive)
47 | Clc1ccc(CN2CCN(c3ncccn3)CC2)cc1 | > 92.5 µM (inactive)
48 | Cc1cccc(CN2CCN(c3ccccn3)CC2)c1 | > 92.5 µM (inactive)
49 | Oc1ccc(CN2CCN(c3ncccn3)CC2)cc1 | > 92.5 µM (inactive)
50 | CCOc1cc(CN2CCN(C(=O)c3ccco3)CC2)ccc1OC | > 92.5 µM (inactive)
51 | Fc1ccccc1CN1CCN(c2ncccn2)CC1 | > 92.5 µM (inactive)
52 | COc1cccc(OCC(O)CN2CCN(c3ccccn3)CC2)c1 (centres undefined) | > 92.5 µM (inactive)
53 | COc1cccc(-n2cc(CNCc3cn(C)nc3-c3ccccc3F)cn2)c1 | > 92.5 µM (inactive)
54 | CC(C)C[C@H]1C(=O)N2CCC[C@H]2[C@]2(O)O[C@](NC(=O)[C@@H]3C=C4c5cccc6[nH]c(Br)c(c56)CC4N(C)C3)(C(C)C)C(=O)N12 (some centres undefined) | > 92.5 µM (inactive)
